Laboratory results as given in patent US10919843B2, “Cannabidiol derivatives as inhibitors of the HIF prolyl hydroxylases activity” (priority 2017, dated 2021).

What was measured:
HIF-1α [1] = assay: HIF-1α transactivation assay in NIH-3T3-EPO-Luc cells; assay type: cell-based; conditions: for EC50: read-out: Potency EC50 HIF-1α; for Efficacy HIF-1α (IRA coefficient): relative to 150 μM DFX
Procedure: (§1) To investigate the biological activities of the different compounds, HIF-1α transactivation assays were performed either in NIH-3T3-EPO-Luc cells (Table 1) or in HaCaT-EPO-luc cells (Table 2). The NIH3T3-EPO-luc and HaCaT-EPO-luc cells have been stably transfected with the plasmid Epo-Luc plasmid. The EPO-Hypoxia Response Element (HRE)-luciferase reporter plasmid contains three copies of the HRE consensus sequence from the promoter of the erythropoietin gene fused to the luciferase gene.
NIH3T3-EPO-luc cells were maintained at 37° C. in a humidified atmosphere containing 5% CO2 in DMEM supplemented with 10% fetal calf serum (FBS), and 1% (v/v) penicillin/streptomycin. Deferoxamine (DFX) was purchased from Sigma-Aldrich (USA). Cells (1×10^4/well in 96-well plates) were seeded the day before the assay. The next day, the cells were stimulated with increasing concentrations of either Cannabidiol (CBD), VCE-004 or compounds II to X. After six hours of stimulation the cells were lysed in 25 mM Tris-phosphate pH 7.8, 8 mM MgCl2, 1 mM DTT, 1% Triton X-100, and 7% glycerol during 15 min at RT in a horizontal shaker. Luciferase activity was measured using a microplate luminometer (Berthold) following the instructions of the luciferase assay kit (Promega, Madison. Wis., USA).
(§2) HaCaT-EPO-Luc cells were maintained at 37° C. in a humidified atmosphere containing 5% CO2 in DMEM supplemented with 10% fetal calf serum (FBS), and 1% (v/v) penicillin/streptomycin. The cells (1×10^5/well in 24-well plates) were seeded the day before the assay and then stimulated with increasing concentrations of either Cannabidiol (CBD), VCE-004 or compounds II to X. After six hours of stimulation the cells were lysed in 25 mM Tris-phosphate pH 7.8, 8 mM MgCi2, 1 mM DTT, 1% Triton X-100, and 7% glycerol during 15 min at RT in a horizontal shake. Luciferase activity was measured in the cell lysates as indicated for NIH3T3-EPO-Luc cells. The RLUs are calculated and the EC50 and IRA (Intrinsic relative activity) values in both cell lines were determined relative to 150 μM deferoxamine (DFX) using the following equation: IRA coefficient=(EC50-DFX×Emax)/(EC50×Emax-DFX), where EC50 and Emax denote EC50 and Emax of the agonist, and EC50-DFX and Emax-DFX denote EC50 and Emax values of the standard agonist DFX (Table 1 and 2).

HIF-1α [2] = assay: HIF-1α transactivation assay in HaCaT-EPO-luc cells; assay type: cell-based; conditions: for EC50: read-out: Potency EC50 HIF-1α; for Efficacy HIF-1α (IRA coefficient): relative to 150 μM DFX
Procedure: as §1, §2

[3] = NIH-3T3-EPO-Luc cells, 6 h stimulation
[4] = HaCaT-EPO-Luc cells, 6 h stimulation

| SMILES | EC50 (HIF-1α [1]; 6 h) [nM] | Efficacy HIF-1α (IRA coefficient) (HIF-1α [1]; [3]) | EC50 (HIF-1α [2]; 6 h) [nM] | Efficacy HIF-1α (IRA coefficient) (HIF-1α [2]; [4]) | EC50 (HIF-1α [1]; [3]) [nM] | EC50 (HIF-1α [2]; [4]) [nM] |
| --- | --- | --- | --- | --- | --- | --- |
| C=C(C)[C@@H]1CCC(C)=C[C@H]1C1=C(O)C(=O)C(CCCCC)=C(NC(C)C)C1=O [Compound VII] | 2900 | 0.68 | 5500 | 2.3 | – | – |
| C=C(C)[C@@H]1CCC(C)=C[C@H]1C1=C(O)C(=O)C(CCCCC)=C(NCC(C)(C)C)C1=O [IX] | 2500 | – | 1400 | – | – | – |
| C=C(C)[C@@H]1CCC(C)=C[C@H]1C1=C(O)C(=O)C(CCCCC)=C(NC)C1=O [Compound VI] | 2800 | 0.61 | 4000 | 3.02 | – | – |
| C=C(C)[C@@H]1CCC(C)=C[C@H]1C1=C(O)C(=O)C(CCCCC)=C(NCC(C)C)C1=O [IV] | 3200 | 0.61 | 1600 | 5.64 | – | – |
| C=C(C)[C@@H]1CCC(C)=C[C@H]1C1=C(O)C(=O)C(CCCCC)=C(NCCCC)C1=O [Compound V] | 1800 | 0.85 | 1900 | 5.01 | – | – |
| C=C(C)[C@@H]1CCC(C)=C[C@H]1C1=C(O)C(=O)C(CCCCC)=C(NCC)C1=O [II] | 4300 | 0.46 | 3200 | 3.87 | – | – |
| C=C(C)[C@@H]1CCC(C)=C[C@H]1C1=C(O)C(=O)C(CCCCC)=C(NCCC(C)C)C1=O [IX] | – | 0.8 | – | 8.64 | – | – |
| C=C(C)[C@@H]1CCC(C)=C[C@H]1C1=C(O)C(=O)C(CCCCC)=C(NCc2ccccc2)C1=O [Compound VIII] | 2600 | – | 1400 | – | – | – |
| C=C(C)[C@@H]1CCC(C)=C[C@H]1C1=C(O)C(=O)C(CCCCC)=C(NCCC(C)C)C1=O [X] | – | 0.29 | – | 10.35 | 3300 | 1200 |
| C=C(C)[C@@H]1CCC(C)=C[C@H]1C1=C(O)C(=O)C(CCCCC)=C(NCCCCC)C1=O [III] | 3600 | 0.28 | – | 5.84 | – | 1700 |
